The target of data set [1] is 20-HETE-Producing Enzyme derived from Human Renal Microsome. Briefly: Inhibitory action to 20-HETE-producing enzyme derived from human renal microsome. Type of data set: biochemical. The conditions noted are these: human renal microsome fraction, tritium-arachidonic acid substrate, NADPH, 37° C., 1.5 hours, pH 7.4; read-out: IC50 (inhibition of 20-HETE production). The procedure: Inhibitory Action to 20-HETE-Producing Enzyme derived from Human Renal Microsome
With regard to the compounds listed in the above table, their inhibitory actions to 20-HETE production were tested.
This test was carried out in accordance with a method mentioned in J. Pharmacol. Exp. Ther., volume 268, page 474 (1994).
A solution of the test compound adjusted to 1 μM using DMSO was added to a 50 mM of 3-morpholinopropanesulfonic acid buffer (MOPS) (pH 7.4) containing 5 mM of magnesium chloride and 1 mM of sodium ethylenediaminetetraacetate (EDTA), then human renal microsome fraction (Human Cell Culture Center, Anatomic Gift Foundation), [5,6,8,9,11,12,15]tritium-arachidonic acid and NADPH were added thereto as an enzymatic source, a substrate and a coenzyme, respectively and reaction was carried out at 37° C. for 1.5 hours. Formic acid was added to the reaction solution to stop the reaction and then acetonitrile was added thereto (final concentration: 50%). Amount of 20-HETE produced thereby was measured using a high performance liquid chromatography equipped with a radioactive substance detector having an ODS column (Biosil C18; manufactured by Biorad).
Amount of 20-HETE produced when no compound was added was defined as 100% and the concentration of the compound when production of 20-HETE was inhibited to an extent of 50% upon addition of a compound (IC50 value) was calculated.

Usually melting point stands for the temperature, or range, at which the solid turns liquid. One may read the IC50 as the concentration that inhibits the measured activity by half. `Cl.O/N=C/Nc1ccc(N2CCN(C3CCCCC3)CC2)c(F)c1` [Compound 106]: the melting point was 207 °C (dec.). Also, the IC50 in data set [1] stood at 105 nM.

For `O/N=C/Nc1ccc(N2CCC(O)CC2)c(F)c1` [Compound 48], the melting point was 159 to 161 °C. For the same compound, in data set [1], the IC50 was 3.2 nM.

For `Cc1cc(N2CCCC3CCCCC32)ccc1N/C=N/O` (stereo not drawn) [Compound 46], the melting point lay within 154 to 156 °C. In addition, the 50% inhibitory concentration (IC50) in data set [1] was determined as 33 nM.

For the compound `CC(=O)N1CCN(c2ccc(N/C=N/O)cn2)CC1` [Compound 129], the melting point was 191 to 192 °C (dec.). Besides, the IC50 in data set [1] is 8.3 nM.

With `OCCC1CCN(c2ccc(N/C=N/O)cc2)CC1` [Compound 54], the melting point lay within 186 to 189 °C. Further, the IC50 in data set [1] amounted to 34.7 nM.

On to `Cl.O/N=C/Nc1ccc(N2CCN(C3CCCCC3)CC2)c(Br)c1` [Compound 108], for which the melting point is 222 to 223 °C (dec.). Further, the IC50 in data set [1] amounted to 293 nM.

For `Cl.OCCN1CCN(c2ccc(N/C=N/O)cc2F)CC1` [Compound 80], the melting point was 180 to 182 °C (dec.). Besides, the IC50 in data set [1] came to 45.4 nM.

On to `O/N=C/Nc1ccc(N2CCOCC2)nc1` [Compound 128], for which the melting point was in the range of 172 to 174 °C.

`Cc1cc(N2CCC3(CC2)OCCO3)ccc1N/C=N/O` [Compound 39] had a melting point of 147 to 150 °C. In data set [1], the IC50 was found to be 4.3 nM.

Compound `O/N=C/Nc1ccc(N2CC=CC2)c(Cl)c1` [Compound 11] showed a melting point of 118 to 121 °C. The IC50 in data set [1] came to 12.5 nM.

As to `OCCC1CCN(c2ccc(N/C=N/O)cn2)CC1` [Compound 132], the melting point fell in the range of 151 to 153 °C. The IC50 in data set [1] is 37.3 nM.

As for `O/N=C/Nc1ccc(N2CCN(c3ccccn3)CC2)c(Cl)c1` [Compound 131], the melting point was in the range of 94 to 96 °C. In addition, the IC50 in data set [1] is 3.5 nM.

Consider `O/N=C/Nc1ccc(N2CCN(C3CCCCC3)CC2)c(Cl)c1` [Compound 107], for which, in data set [1], the IC50 was 41.9 nM.

`OCCC1CCN(c2ccc(N/C=N/O)cc2F)CC1` [Compound 55] displayed a melting point of 172 to 176 °C. Besides, the IC50 in data set [1] turned out to be 34.2 nM.

Compound `COCCN(CCOC)c1ccc(N/C=N/O)cc1` [Compound 133] registered a melting point of 97 to 98 °C. Besides, in data set [1], the IC50 came to 340 nM.

As to `O/N=C/Nc1ccc(N2CC=CCC2)c(C(F)(F)F)c1` [Compound 19], the melting point is 136.5 to 138 °C. The IC50 in data set [1] was 18 nM.

`O/N=C/Nc1ccc(N2CCCCCC2)c(C(F)(F)F)c1` [Compound 26]: the melting point was 127 to 128.5 °C. Also, in data set [1], the IC50 is 25.2 nM.

`O/N=C/Nc1ccc(N2CCC3(CC2)OCCO3)c(Cl)c1` [Compound 35] showed a melting point of 174 to 176 °C. Further, in data set [1], the IC50 is 5 nM.

Turning to `CC1CN(c2ccc(N/C=N/O)cc2Cl)CC(C)O1` (stereo not drawn) [Compound 9], the melting point was 163 to 164 °C (dec.). In addition, the IC50 in data set [1] worked out at 46.9 nM.

Regarding `O=C(CN1CCN(c2ccc(N/C=N/O)cc2Br)CC1)N1CCOCC1` [Compound 101], in data set [1], the IC50 was determined as 20.8 nM.

The compound `COCCN(CCOC)c1ccc(N/C=N/O)cc1Cl` [Compound 119] came in with a melting point of 95 to 96.5 °C.

Turning to `Cl.O/N=C/Nc1ccc(N2CCN(CCN3CCCC3)CC2)c(C(F)(F)F)c1` [Compound 96], the melting point is 229 to 231 °C (dec.). Also, in data set [1], the IC50 was 1530 nM.

For the compound `O/N=C/Nc1ccc(N2CCCCCCC2)cc1` [Compound 27], the melting point is 170 to 173 °C. In addition, in data set [1], the IC50 amounted to 10.2 nM.

For `O/N=C/Nc1ccc(N2CCN(C3CCCCC3)CC2)cc1` [Compound 105], in data set [1], the IC50 is 14.8 nM.

Take `O/N=C/Nc1ccc(N2CCSCC2)c(F)c1` [Compound 2]: the melting point is 141 to 142 °C (dec.). Further, the IC50 in data set [1] worked out at 3.2 nM.

Consider `O/N=C/Nc1ccc(N2CC=CCC2)c(Cl)c1` [Compound 16], for which the melting point fell in the range of 135 to 137.5 °C. Further, in data set [1], the IC50 came to 2.2 nM.

As for `O/N=C/Nc1ccc(N2CCCCCC2)c(Cl)c1` [Compound 23], the melting point was 113 to 114 °C. Also, in data set [1], the IC50 was 2.2 nM.

Consider `Cl.O/N=C/Nc1ccc(N2CCN(C3CCCCC3)CC2)nc1` [Compound 123], for which the melting point is 224 to 226 °C (dec.). Further, the IC50 in data set [1] worked out at 90.6 nM.

The compound `CCN(CC)C(=O)C1CCCN(c2ccc(N/C=N/O)cc2C(F)(F)F)C1` (stereo not drawn) [Compound 64] came in with a melting point of 150 to 156 °C. In data set [1], the IC50 amounted to 19.4 nM.

For `Cl.O=C(CN1CCN(c2ccc(N/C=N/O)cc2)CC1)N1CCOCC1` [Compound 98], the melting point was 167 to 169 °C (dec.). Also, the IC50 in data set [1] turned out to be 69 nM.

On to `O/N=C/Nc1ccc(N2CCOCC2)nc1` [Compound 127, N-[2-(morpholino)pyridine-5-yl]-N′-hydroxyformamidine], for which the IC50 in data set [1] amounted to 215 nM.

For `Cc1cc(N2CCN(CCN3CCCC3)CC2)ccc1N/C=N/O.Cl` [Compound 97], the melting point was 196 to 198 °C (dec.). Moreover, in data set [1], the IC50 came out at 758 nM.

For the compound `O/N=C/Nc1ccc(N2CC=CC2)c(Br)c1` [Compound 12], the IC50 in data set [1] turned out to be 16 nM.

Turning to `Cc1cc(N2CCN(C3CCCCC3)CC2)ccc1N/C=N/O.Cl` [Compound 111], the melting point was 230 to 232 °C (dec.). For the same compound, in data set [1], the IC50 came to 70.8 nM.

Consider `Cl.O/N=C/Nc1ccc(N2CCN(CCN3CCCC3)CC2)c(F)c1` [Compound 93], for which the melting point was 205 °C (dec.). Further, in data set [1], the IC50 amounted to 135 nM.

For `Cc1cc(N2CC=CCC2)ccc1N/C=N/O` [Compound 20], the melting point was 146 to 149 °C. Moreover, the IC50 in data set [1] amounted to 663 nM.

The compound `O/N=C/Nc1ccc(N2CCSCC2)c(Cl)c1` [Compound 3, N-hydroxyl-N′-(3-chloro-4-thiomorpholinophenyl)formamidine] returned a melting point of 137 to 138.5 °C. For the same compound, in data set [1], the concentration for half-maximal inhibition (IC50) was found to be 3.6 nM.

As for `O/N=C/Nc1ccc(N2CCCCCCC2)c(F)c1` [Compound 28], the melting point lay in the range of 137 to 139 °C. For the same compound, the IC50 in data set [1] was 5.7 nM.

Compound `O/N=C/Nc1ccc(N2CC=CCC2)c(F)c1` [Compound 15] had a melting point of 129 to 130 °C. Further, the IC50 in data set [1] stood at 3.9 nM.

The compound `O/N=C/Nc1ccc(N2CCSCC2)cc1` [Compound 1] gave a melting point of 138 to 141 °C.

As to `CCOC(=O)C1CCN(c2ccc(N/C=N/O)cc2Cl)CC1` [Compound 134], the melting point is 135 to 138 °C (dec.). Further, the concentration for half-maximal inhibition (IC50) in data set [1] came to 4 nM.

For the compound `CCN1CCN(c2ccc(N/C=N/O)cc2Br)CC1` [Compound 75], the melting point lay within 204.5 to 206.5 °C. The IC50 in data set [1] came out at 154 nM.

Consider `CCN1CCN(c2ccc(N/C=N/O)cc2)CC1` [Compound 72], for which the melting point is 220 to 222 °C. Also, the IC50 in data set [1] stood at 39.2 nM.

Turning to `Cl.O=C(CN1CCN(c2ccc(N/C=N/O)cc2Cl)CC1)N1CCOCC1` [Compound 100], the melting point fell in the range of 110 to 114 °C. Also, the IC50 in data set [1] came out at 36.3 nM.

`O/N=C/Nc1ccc(N2CCN(CCN3CCCC3)CC2)c(Br)c1` [Compound 95] displayed a melting point of 163 to 165 °C. In data set [1], the IC50 stood at 75.8 nM.

For `Cl.O/N=C/Nc1ccc(N2CCN(CCN3CCCC3)CC2)c(Cl)c1` [Compound 94], the melting point fell in the range of 161 to 163 °C. Besides, the IC50 in data set [1] came to 222 nM.

The record behind these values is patent publication US7214714B2, “20-hydroxyeicosatetraenoic acid production inhibitors” (Taisho Pharmaceutical Co. Ltd., priority 2001, dated 2007).
